Test results as given in ChEMBL document CHEMBL3882721, “2-phenyl benzimidazoles and imidazo-4,5|-pyridines as CDS1/CHK2-inhibitors and adjuvants to chemotherapy or radiation therapy in the treatment of cancer” (2007).
Calls of active or inactive are those of the source. The rule behind the calls is not given here.

System: not listed separately
Assay: Anticlonogenic activity against ionizing radiation/chemotherapeutic agent-treated clonogenic tumor cells (unknown origin) preincubated for 12 to 48 hrs followed by growth medium addition without compound measured after 7 to 14 days by crystal violet staining-based assay relative to control
Type: functional
In the case of `NC(=O)c1ccc2[nH]c(-c3ccc(Oc4ccc(Cl)cc4)cc3)nc2c1`, the Activity is reported as “Active”.

System: spleen
Assay: Cytoprotective activity against 137Cs gamma-radiation-induced apoptosis in C57/BL6 mouse spleen cells preincubated for 1 hr followed by irradiation measured after 6 to 24 hrs by annexin V/FITC-propidium iodide staining-based FACS analysis
Type: functional, cell-based
In the case of `NC(=O)c1ccc2[nH]c(-c3ccc(Oc4ccc(Br)cc4)cc3)nc2c1`, the Activity is reported as “Active”. In the case of `NC(=O)c1ccc2[nH]c(-c3ccc(Oc4ccc(Cl)cc4)cc3)nc2c1`, the Activity is reported as “Active”. For `NC(=O)c1ccc2[nH]c(-c3ccc(Oc4ccc(I)cc4)cc3)nc2c1`, the Activity was “Active”. In the case of `COc1ccc(Sc2ccc(-c3nc4cc(C(N)=O)ccc4[nH]3)cc2)cc1`, the Activity is reported as “Active”. For `Cc1ccc(Sc2ccc(-c3nc4cc(C(N)=O)ccc4[nH]3)cn2)cc1`, the Activity was “Active”. For `NC(=O)c1ccc2[nH]c(-c3ccc(Sc4ccc(O)cc4)cc3)nc2c1`, the Activity was “Active”. In the case of `COc1cccc(Sc2ccc(-c3nc4cc(C(N)=O)ccc4[nH]3)cc2)c1`, the Activity is reported as “Active”. For `COc1cc(Oc2ccc(-c3nc4cc(C(N)=O)ccc4[nH]3)cc2)ccc1Br`, the Activity was “Active”. In the case of `NC(=O)c1ccc2[nH]c(-c3ccc(Oc4ccc(Br)c(O)c4)cc3)nc2c1`, the Activity is reported as “Active”. In the case of `NC(=O)c1ccc2[nH]c(-c3ccc(Sc4ccc(Cl)cc4)nc3)nc2c1`, the Activity is reported as “Active”. In the case of `NC(=O)c1ccc2[nH]c(-c3ccc(Oc4ccc5c(c4)OCO5)cc3)nc2c1`, the Activity is reported as “Active”. With `NC(=O)c1ccc2[nH]c(-c3ccc(Sc4ccc(F)c(Cl)c4)cc3)nc2c1` the Activity was “Active”. In the case of `NC(=O)c1ccc2[nH]c(-c3ccc(Oc4ccc5ccccc5c4)cc3)nc2c1`, the Activity is reported as “Active”.
